One experiment addresses CYP2C19 (Homo sapiens, UniProt P33261). The experiment is described as follows: Inhibition of liver cytochrome P450 enzymes (pooled human liver microsomes), CYP2C19.
Another experiment addresses CYP2C9 (Homo sapiens, UniProt P11712). Description: Inhibition of liver cytochrome P450 enzymes (pooled human liver microsomes), CYP2C9.
For a further experiment, the target named is CYP3A4 (Homo sapiens, UniProt P08684). Description: Inhibition of liver cytochrome P450 enzymes (pooled human liver microsomes), CYP3A4. (Liver microsomes are a subcellular fraction often used to study metabolism.)
Another experiment addresses T1, CYP17 (Rattus norvegicus, UniProt P11715).
T1 construct: from tissue; host or cells: pooled rat testicular microsomes
T1 sequence (P11715 1-507): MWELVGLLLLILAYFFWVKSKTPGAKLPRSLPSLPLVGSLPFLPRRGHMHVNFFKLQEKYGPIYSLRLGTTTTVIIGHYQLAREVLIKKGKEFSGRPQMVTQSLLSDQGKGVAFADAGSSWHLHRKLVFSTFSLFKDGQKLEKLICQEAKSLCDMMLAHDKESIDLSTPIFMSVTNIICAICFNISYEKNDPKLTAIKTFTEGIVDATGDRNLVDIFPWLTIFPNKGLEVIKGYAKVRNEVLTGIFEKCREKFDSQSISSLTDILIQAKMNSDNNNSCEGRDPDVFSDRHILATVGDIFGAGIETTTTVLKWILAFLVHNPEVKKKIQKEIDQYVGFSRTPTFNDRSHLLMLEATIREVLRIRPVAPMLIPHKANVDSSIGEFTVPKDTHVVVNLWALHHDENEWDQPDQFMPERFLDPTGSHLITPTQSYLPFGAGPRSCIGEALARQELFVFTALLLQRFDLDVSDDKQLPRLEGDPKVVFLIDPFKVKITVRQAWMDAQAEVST
Description: Inhibition of CYP17 (pooled rat testicular microsomes). In kind it is biochemical. As for the experimental part: CYP17 activity was assayed according to the following procedure. […] The individual test compound and isozyme inhibitor solutions were then diluted 20-fold with deionized water (50:950 v/v) to concentrations of 135, 27, 4.5, 0.9, 0.15, 0.03 and 0.005 μM. The percent of organic solvent attributable to the test compound or inhibitor mixture in the final reaction mixture is 1%. Pooled rat testicular microsome suspension (20 mg/mL) was diluted with phosphate buffer to obtain a 1.25 mg/mL suspension. A solution of NADPH was prepared in phosphate buffer at a concentration of 2.5×. A stock solution of the substrate was prepared in DMSO:MeCN (50:50 v/v), mixed, and diluted in phosphate buffer to obtain a single solution containing the substrate at 5 μM. The percent of organic solvent attributable to substrate mixture in the final reaction mixture is 1%. Substrate solution and microsome suspension were combined in a 1:1 volume ratio, mixed, and distributed to reaction wells of a PCR plate. Individual test compound or the inhibitor solution at each concentration was added to the wells and mixed by repetitive aspirate/dispense cycles. For active controls, blank test compound diluent was added in place of test compound solution. Reaction mixtures were allowed to equilibrate at 37° C. for approximately two minutes before adding NADPH solution to initiate reaction, followed by pipette mixing of reaction mixture.

SMILES strings stand for the structures. Some results are limits rather than exact numbers.

Sequence of CYP3A4 (P08684 whole entry): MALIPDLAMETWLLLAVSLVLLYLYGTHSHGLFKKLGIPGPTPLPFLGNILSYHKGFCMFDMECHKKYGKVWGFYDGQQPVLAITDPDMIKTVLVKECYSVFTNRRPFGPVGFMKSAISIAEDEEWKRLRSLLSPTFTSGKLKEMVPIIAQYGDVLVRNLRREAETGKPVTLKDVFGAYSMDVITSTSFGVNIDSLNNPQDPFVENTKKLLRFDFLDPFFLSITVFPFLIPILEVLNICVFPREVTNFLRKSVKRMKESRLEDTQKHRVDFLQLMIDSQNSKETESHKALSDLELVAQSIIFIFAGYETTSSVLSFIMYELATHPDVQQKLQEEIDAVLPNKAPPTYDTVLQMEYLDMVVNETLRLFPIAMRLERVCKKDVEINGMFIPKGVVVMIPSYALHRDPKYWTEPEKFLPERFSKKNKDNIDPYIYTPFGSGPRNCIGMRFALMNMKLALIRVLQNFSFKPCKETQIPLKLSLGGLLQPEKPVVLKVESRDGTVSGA
Sequence of CYP2C9 (P11712 whole entry): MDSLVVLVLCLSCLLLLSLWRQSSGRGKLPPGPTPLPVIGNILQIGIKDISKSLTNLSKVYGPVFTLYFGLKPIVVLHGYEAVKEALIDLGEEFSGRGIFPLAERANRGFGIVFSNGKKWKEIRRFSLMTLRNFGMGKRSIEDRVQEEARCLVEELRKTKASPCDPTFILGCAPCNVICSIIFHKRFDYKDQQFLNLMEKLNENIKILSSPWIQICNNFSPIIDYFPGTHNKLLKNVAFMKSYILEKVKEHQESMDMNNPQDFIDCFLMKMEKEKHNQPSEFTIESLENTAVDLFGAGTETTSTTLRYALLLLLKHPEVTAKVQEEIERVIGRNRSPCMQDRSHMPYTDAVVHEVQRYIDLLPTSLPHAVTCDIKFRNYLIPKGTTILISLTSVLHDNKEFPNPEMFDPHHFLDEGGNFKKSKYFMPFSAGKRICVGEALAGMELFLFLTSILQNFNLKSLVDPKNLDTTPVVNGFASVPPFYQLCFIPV
Sequence of CYP2C19 (P33261 whole entry): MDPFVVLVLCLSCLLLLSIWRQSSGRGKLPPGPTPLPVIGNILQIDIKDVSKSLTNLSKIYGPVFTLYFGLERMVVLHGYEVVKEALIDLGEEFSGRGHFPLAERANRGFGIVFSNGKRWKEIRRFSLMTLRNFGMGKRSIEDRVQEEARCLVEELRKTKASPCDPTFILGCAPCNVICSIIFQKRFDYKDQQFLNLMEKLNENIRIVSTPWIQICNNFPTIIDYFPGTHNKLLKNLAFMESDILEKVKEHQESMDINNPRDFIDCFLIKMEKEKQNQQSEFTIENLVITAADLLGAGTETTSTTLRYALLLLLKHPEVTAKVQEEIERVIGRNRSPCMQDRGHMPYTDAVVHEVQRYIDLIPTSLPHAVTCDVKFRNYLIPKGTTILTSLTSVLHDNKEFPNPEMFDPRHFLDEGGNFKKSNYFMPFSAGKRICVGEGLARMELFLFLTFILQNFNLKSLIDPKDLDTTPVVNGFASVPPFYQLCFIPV

Consider `COc1cc2ccc(C(C(C)C)n3ccnn3)cc2cc1OC` (centres unmarked) [Example 1, 1-(1-(6,7-dimethoxynaphthalen-2-yl)-2-methylpropyl)-1H-1,2,3-triazole], for which the IC50 (as a rule, the point on the concentration scale where inhibition reaches its midpoint) turned out to be 8.4 µM against CYP2C19, 6.5 µM on CYP2C9, 11 µM against CYP3A4 and 0.05 µM at CYP17.
Take `CC(C)C(c1ccc2cc(OCC(F)(F)F)c(OCC(F)(F)F)cc2c1)n1ccnn1` (centres unmarked) [Example 2, 1-(1-(6,7-bis(2,2,2-trifluoroethoxy)naphthalen-2-yl)-2-methylpropyl)-1H-1,2,3-triazole]: the IC50 is 4.4 µM against CYP2C19, 2.9 µM on CYP2C9, over 60 µM against CYP3A4 and 0.48 µM against CYP17.
For `CC(C)C(c1ccc2cc(OCC(F)(F)F)ccc2n1)n1ccnn1` (centres unmarked) [Example 3, 2-(2-Methyl-1-(1H-1,2,3-triazol-1-yl)propyl)-6-(2,2,2-trifluoroethoxy)quinoline], the IC50 at CYP2C19 was found to be 5 µM; against CYP2C9, 3.2 µM; on CYP3A4 it was 19 µM; at CYP17 it was 0.03 µM.
Taken in the same sequence, the figures for `CC(C)C(c1ccc2cc(-c3ccc(F)cc3)ccc2n1)n1ccnn1` (centres unmarked) [Example 4, 6-(4-Fluorophenyl)-2-(2-methyl-1-(1H-1,2,3-triazol-1-yl)propyl)quinoline] were 31 µM, 24 µM, 84 µM and 0.042 µM.
For the compound `CC(=O)N1CCN(c2ccc(OCC3COC(Cn4ccnc4)(c4ccc(Cl)cc4Cl)O3)cc2)CC1` (centres unmarked) [Ketoconazole, ketoconazole, reference compound], the IC50 against CYP17 worked out at 0.4 µM.

Values taken from patent US8669274B2, “Metalloenzyme inhibitor compounds” (Viamet Pharmaceuticals, Inc., priority 2010, dated 2014).
